From patent US20120157471A1, “BENZIMIDAZOLE DERIVATIVES” (PFIZER INC., priority 2009, published 2012)

How the values were obtained:
[1] = target: T1, human Smo (amino acids 181-787) (Homo sapiens, UniProt Q99835); assay: Smo radioligand competition binding assay (displacement of 3H-PF-03451358 from HEK293 membranes); details: for inhibition at 0.05 µM: 0.05 μM test compound, displacement of 3H-PF-03451358, read-out: SMO % inh. @ 0.05 μM; for IC50: radioligand competition binding
T1 construct: expressed in transfected cells; membrane preparation
T1 sequence (Q99835 181-787): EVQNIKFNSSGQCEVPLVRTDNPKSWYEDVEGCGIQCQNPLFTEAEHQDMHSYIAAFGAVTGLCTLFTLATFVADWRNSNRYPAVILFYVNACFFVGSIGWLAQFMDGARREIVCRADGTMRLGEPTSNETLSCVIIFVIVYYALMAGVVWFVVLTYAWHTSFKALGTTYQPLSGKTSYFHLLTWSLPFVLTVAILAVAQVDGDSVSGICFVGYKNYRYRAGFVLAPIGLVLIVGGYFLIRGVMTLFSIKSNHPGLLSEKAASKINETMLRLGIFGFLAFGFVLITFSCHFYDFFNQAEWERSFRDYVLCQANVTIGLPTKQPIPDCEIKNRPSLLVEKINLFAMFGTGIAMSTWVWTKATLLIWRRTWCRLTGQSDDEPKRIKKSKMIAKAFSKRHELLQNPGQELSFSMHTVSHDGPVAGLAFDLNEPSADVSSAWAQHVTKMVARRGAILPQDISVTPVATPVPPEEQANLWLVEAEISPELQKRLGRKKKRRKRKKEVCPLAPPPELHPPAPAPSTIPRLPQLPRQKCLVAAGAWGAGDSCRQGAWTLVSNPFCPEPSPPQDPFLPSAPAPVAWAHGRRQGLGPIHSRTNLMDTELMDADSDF
Procedure, shortened: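 Displacement of 3 nM tritiated PF-03451358 measured by filtration and scintillation counting after 2 h at room temperature, using 40 μg/well HEK293 membranes bearing cell-surface Smo 181-787, pH 7.5 buffer. Specific binding defined against 30 μM unlabelled ligand; IC50 via variable-slope sigmoidal fit.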

Gli-Luc/MEF cells (Smo) = assay: Gli-Luc/MEF assay (Shh-stimulated luciferase reporter under the Gli response element); assay type: cell-based, mouse; details: Mus musculus, MEF, 48 h
Procedure, shortened: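 IC50 derived from luminescence (Bright-Glo) after 48 h at 37° C, 5% CO2, with compound at […] (3-fold dilutions) added together with mouse Shh at 2 μg/mL final. Cells: MEFs from Gli-Luc transgenic mice.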

| SMILES | inhibition at 0.05 µM [1] [%] | IC50 [1] [nM] | IC50 (Gli-Luc/MEF cells (Smo)) [nM] |
| --- | --- | --- | --- |
| C[C@H]1CN(c2cc(-c3nc4ccccc4n3C)c(Cl)cn2)CCN1 [Example A-160, 2-{5-chloro-2-[(3S)-3-methylpiperazin-1-yl]pyridin-4-yl}-1-methyl-1H-benzimidazole] | 98 | 16 | 7 |
| Cn1c(-c2ccnc(N3CCNCC3)c2)nc2ccccc21 [Example A-31] | 54 | 645 | 128 |
| CNC(=O)N1CCN(c2cccc(-c3nc4ccccc4n3C)n2)CC1 [Example B-10, N-methyl-4-[6-(1-methyl-1H-benzimidazol-2-yl)pyridin-2-yl]piperazine-1-carboxamide] | 72 | 82 | 89 |
| CNC(=O)NC1CN(c2cc(-c3nc4ccccc4n3C)c(Cl)cn2)C1 [Example A-180, 1-{1-[5-chloro-4-(1-methyl-1H-benzimidazol-2-yl)pyridin-2-yl]azetidin-3-yl}-3-methylurea] | 89 | 60 | 43 |
| Cn1c(-c2cc(N3CCN(CC(O)CO)CC3)ncc2Cl)nc2ccccc21 (stereo not drawn) [Example A-103, 3-{4-[5-chloro-4-(1-methyl-1H-benzimidazol-2-yl)pyridin-2-yl]piperazin-1-yl}propane-1,2-diol] | 80 | 153 | 27 |
| COC(=O)N1CCCN(c2cc(-c3nc4ccccc4n3C)ccn2)CC1 [Example A-156, methyl 4-[4-(1-methyl-1H-benzimidazol-2-yl)pyridin-2-yl]-1,4-diazepane-1-carboxylate] | 95 | 23 | 11 |
| Cn1c(-c2cc(N3CCC(O)(CO)CC3)ncc2Cl)nc2ccccc21 [Example A-69, 1-[5-chloro-4-(1-methyl-1H-benzimidazol-2-yl)pyridin-2-yl]-4-(hydroxymethyl)piperidin-4-ol] | 94 | 27 | 10 |
| CNC(=O)NC1CCN(c2cc(-c3nc4ccccc4n3C)c(Cl)cn2)C1 (stereo not drawn) [Example A-176, 1-{1-[5-chloro-4-(1-methyl-1H-benzimidazol-2-yl)pyridin-2-yl]pyrrolidin-3-yl}-3-methylurea] | 82 | 84 | 22 |
| Cc1cnc(N2CCC(NS(C)(=O)=O)CC2)cc1-c1nc2ccccc2n1C [Example E-1, N-{1-[5-methyl-4-(1-methyl-1H-benzimidazol-2-yl)pyridin-2-yl]piperidin-4-yl}methanesulfonamide] | 98 | 19 | 19.8 |
| CC(=O)N1CCN(c2cc(-c3nc4ccccc4[nH]3)c(Cl)cn2)CC1 [Example A-215, 2-[2-(4-acetylpiperazin-1-yl)-5-chloropyridin-4-yl]-1H-benzimidazole] | 79 | 189 | 63 |
| COC(=O)NC1CCN(c2cc(-c3nc4ccccc4n3C)c(Cl)cn2)CC1 [Example A-32, methyl {1-[5-chloro-4-(1-methyl-1H-benzimidazol-2-yl)pyridin-2-yl]piperidin-4-yl}carbamate] | 89 | 7 | 1 |
| Cn1c(-c2nc(N3CCN(C(=O)CO)CC3)ncc2Cl)nc2ccccc21 [Example C-18, 2-{4-[5-chloro-4-(1-methyl-1H-benzimidazol-2-yl)pyrimidin-2-yl]piperazin-1-yl}-2-oxoethanol] | 98 | 15 | 36 |
| Cn1c(-c2cc(N3C[C@H]4CNS(=O)(=O)[C@H]4C3)ncc2Cl)nc2ccccc21 (stereo in doubt) [Example A-55, 2-{5-chloro-2-[(3aS,6aR)-1,1-dioxidohexahydro-5H-pyrrolo[3,4-d]isothiazol-5-yl]pyridin-4-yl}-1-methyl-1H-benzimidazole] | 98 | 26 | 10 |
